In ChEMBL document CHEMBL1136491, “1-aryl-6,7-methylenedioxy-3H-quinazolin-4-ones as anticonvulsant agents” (Bioorg Med Chem Lett, 2003):

How the values were obtained:
Mus musculus [1] = assay: Anticonvulsant activity against audiogenic clonus seizure 30 min after intraperitoneal administration (3.3-200 umol/kg) in DBA/2 mice; type: functional; settings: ip, 0.5 h
Mus musculus [2] = assay: Anticonvulsant activity against audiogenic tonus seizure 30 min after intraperitoneal administration (3.3-200 umol/kg) in DBA/2 mice; type: functional; settings: ip, 0.5 h
[3] = molecular target: Glutamate receptor ionotropic, AMPA (Rattus norvegicus, UniProt P19490+P19491+P19492+P19493); assay: Ability to displace [3H]CP-526427 (3 nM) from binding site of the Ionotropic glutamate receptor AMPA in rat forebrain membrane; type: cell membranes
Mus musculus [4] = assay: Anticonvulsant activity against audiogenic clonus seizure 15 min after intraperitoneal administration (3.3-200 umol/kg) in DBA/2 mice; type: functional; settings: ip, 0.25 h

Compound	ED50 (Mus musculus [1]) [µmol/kg]	ED50 (Mus musculus [2]) [µmol/kg]	IC50 [3] [µM]	ED50 (Mus musculus [4]) [µmol/kg]
O=C1Cc2cc3c(cc2C(c2ccc(F)cc2)=NN1)OCO3	89.8	63.8		
Oc1nc(-c2ccc(Br)cc2)nc2cc3c(cc12)OCO3	68.3	36.6		
Nc1ccc(-c2nc(O)c3cc4c(cc3n2)OCO4)cc1	27.8	17.7	> 100	
Oc1nc(-c2ccc(Cl)cc2)nc2cc3c(cc12)OCO3	36.5	21.6	> 100	
Oc1nc(-c2ccccc2)nc2cc3c(cc12)OCO3	59.5	46.1	> 100	
Oc1nc(-c2ccc(F)cc2)nc2cc3c(cc12)OCO3	32.7	27.8	> 100	
Nc1ccc(-c2nc(S)c3cc4c(cc3n2)OCO4)cc1	37.8	17.9		79.4
Nc1ccc(-c2nnc(O)c3cc4c(cc23)OCO4)cc1			> 100	
